Data taken from publication PMC11060137, “A Phase I Study of KIN-3248, an Irreversible Small-molecule Pan-FGFR Inhibitor, in Patients with Advanced FGFR2/3-driven Solid Tumors” (Cancer Research Communications, 2024).
Where two headings read alike, the source gives them in different places.

Legend:
[1] = Plasma pharmacokinetics in patients (LC/MS-MS, noncompartmental); assay type: in vivo, human
Description: Blood for pharmacokinetic analysis was collected C1D1 (pretreatment and postdose at 0.25, 0.5, 1, 2, 4, 6, 8, 10 hours), […] (pretreatment, postdose at 1 and 2 hours), C1D8 and day 15 (pretreatment, postdose 1 hour), C2D1 (pretreatment, postdose at 0.25, 0.5, 1, 2, 4, 6, 8, 10 hours), and pretreatment and 1 hour postdose on day 1 of C3, C4 and cycle 5. KIN-3248 concentration was determined at each timepoint by an established and validated LC/MS-MS assay.

[2] = tested on: advanced solid tumors harboring FGFR2 and/or FGFR3 gene alterations; assay: Antitumor activity by RECIST v1.1; assay type: in vivo, human
serum phosphate = assay: Serum phosphate as pharmacodynamic biomarker; assay type: in vivo, human
Description: (§1) As FGFR1 is expressed in renal tubules and pharmacologic inhibition of FGFR1 leads to phosphate retention ([18]), serum phosphate levels were measured at each study visit as a pharmacodynamic biomarker. Paired pretreatment and on-treatment biopsies (cycle 1 day 8 to day 21) were collected and analyzed for phospho-ERK and total ERK by IHC. DUSP6 gene expression was measured in tumor samples using RNA ISH (RNAscope; probes from Advanced Cell Diagnostics).

phospho-ERK = assay: Phospho-ERK relative to total ERK by IHC in paired biopsies; assay type: in vivo, human
Description: as §1

ctDNA = ctDNA molecular response (change in mean VAF, PredicineATLAS); assay type: in vivo, human; details: after 1 cycle; 26 patients evaluable for RECIST and ctDNA response
Excerpt: Whole blood was collected into Streck Cell Free BCT DNA tubes on cycle 1 day 1 and cycle 2 day 1. Samples were processed to extract plasma followed by cell-free DNA isolation, which was then interrogated by PredicineATLAS, a 600 gene assay able to detect SNVs, indels, rearrangements, fusions, and copy-number gains, as described previously ([19]).
For each patient with available paired ctDNA, the change in ctDNA after one cycle of treatment was summarized by calculating the mean variant allele frequency (VAF) of all somatic mutations at each timepoint and then taking the ratio as follows: [(mean VAF^C2D1/mean VAF^C1D1) −1]*100 ([20]). For somatic mutations detected in only one sample of a patient-matched pair, the VAF was imputed to be zero for calculation purposes, when the mutation was not detected. Change in match pair ctDNA was correlated both categorically with RECIST v 1.1 response and continuously (Pearson R) with the best % change in target lesions. Biomarker analyses were conducted using R [R Core Team 2023 ([21])].

[3] = tested on: patients with advanced solid tumors harboring FGFR2 and/or FGFR3 gene alterations
Description: The study was divided into two parts. […] The secondary objectives included antitumor activity in Part A, determination of pharmacokinetics and pharmacodynamics.
Dose level 1 was started at 5 mg oral daily, and patients were escalated on study to 50 mg daily. On the basis of ongoing efficacy, toxicity, and pharmacokinetic analysis, a planned amendment added additional cohorts up to 80 mg orally daily to define the MTD/RP2D. […] One cycle was 28 days of continuous dosing. Intrapatient dose escalation after safely tolerating two cycles was allowed if per protocol criteria were met. Patients continued therapy until evidence of disease progression, intolerance or unacceptable toxicity, withdrawal of consent, investigator decision, sponsor decision, or death.
Patients were evaluated with medical history, physical examinations, and clinical laboratory on days 1, 8, 15, and 22 of cycle 1; days 1 and 15 from cycle 2 through cycle 5; and day 1 of each subsequent cycle. […] Except for hyperphosphatemia, adverse events (AE) were graded according to the NCI-CTCAE (Common Terminology Criteria for Adverse Events) Version 5.0 at each study visit and for approximately 30 days following end of treatment.
The primary endpoints for the overall study, included: the incidence of DLTs, incidence of AEs, treatment-emergent AEs (TEAE), and treatment-related AEs (TRAE).

For C=CC(=O)N1C[C@@H](n2nc(C#Cc3c(F)cc4c(ncn4C4CC4)c3F)c(C(N)=O)c2NC)C[C@@H]1COC [KIN-3248], the Exposure versus dose ([1]; 5-50 mg) was “generally dose proportional”, the “Concentrations in Asian (China, Taiwan, Korean) versus non-Asian patients” value ([1]; exploratory analysis) was “not a qualitative difference” and the Accumulation ([1]; first two cycles) was “not observed”. For the same compound, the “Apparent clearance (CL/F)” value ([1]; human, in vivo) was 23,300-32,100 mL/hour, the “Steady-state geometric mean half-life (t1/2)” value ([1]; human, in vivo) was “approximately 4 hours” and the “Volume of distribution (V/F)” value ([1]; human, in vivo) was 135,000-200,000 mL. The “Best response in pretreated ICC patients with FGFR2 kinase domain resistance mutations” value ([2]; 3 patients) was “progressive disease”, the “Response in FGFR2/3 fusion patients” value ([2]; 5 patients) was 20% and the ORR ([2]; 54 patients) was 9.25%. For the same compound, the “Responders among FGFR inhibitor pretreated patients with acquired FGFR resistance mutations in ctDNA” value ([2]; of 4 patients, gastric cancer) was 1, the “Confirmed responders among FGFR inhibitor experienced patients” value ([2]; of 23 patients) was 1 and the “Confirmed responders among FGFR inhibitor naïve patients” value ([2]; of 31 patients) was 3. The “Responders among FGFR inhibitor naïve patients” value ([2]; of 31 patients) was 4, the “Patients achieving CR” value ([2]; of 54 patients enrolled) was “none” and the “Patients achieving PR” value ([2]; of 54 patients enrolled) was 5. The DCR ([2]; total population) was 46%, the “Patients achieving SD” value ([2]; twenty patients) was 37.0% and the “Serum phosphate versus dose and exposure” value (serum phosphate; 54 participants) was “increased with dose and exposure”. The “Onset of serum phosphate elevations” value (serum phosphate; all dose levels) was “within the f irst week”, the “Phospho-ERK relative to total-ERK” value (phospho-ERK; eleven paired biopsy samples, IHC) was “trend toward reduction” and the “Samples tested with a reduction in p-ERK” value (phospho-ERK; paired pretreatment and on-treatment biopsies) was 50%. For the same compound, the “Patients with greater than 50% decrease in mean VAF” value (ctDNA) was “Six”, the “Patients with treatment reduced and discontinued because of TEAEs” value ([3]; 7 patients) was 13.0% and the “Patients with treatment-related grade 3 events” value ([3]; 11 of 54 patients) was 20.4%. For the same compound, the “Patients with treatment interrupted because of TEAEs” value ([3]; 16 patients) was 29.6%, the “Patients with TEAE grade ≥3 events” value ([3]; 25 of 54 patients) was 46.3% and the “Patients with TRAEs of any grade” value ([3]; 47 of 54 patients) was 87.0%. For the same compound, the “Patients with TEAEs of any grade” value ([3]; 53 of 54 patients) was 98.1%, the “TRAE of any grade: diarrhea” value ([3]; 54 patients) was 25.9% and the “TRAE of any grade: hyperphosphatemia” value ([3]; 54 patients) was 64.8%. The “TRAE of any grade: stomatitis” value ([3]; 54 patients) was 16.7%, the “Number of dose-limiting toxicities (DLT)” value ([3]; 54 patients, 5-50 mg orally daily, DLT at dose level 1 (5 mg): grade 3 drug hypersensitivity reaction) was “one” and the “Patient with any TEAE, n (%)” value ([3]; CTCAE (V5) Grade 1–2, N = 54) was 28 (51.9%). For the same compound, the “TEAE Alanine aminotransferase increased, n (%)” value ([3]; CTCAE (V5) Grade 1–2, N = 54) was 5 (9.3%), the “TEAE Aspartate aminotransferase increased, n (%)” value ([3]; CTCAE (V5) Grade 1–2, N = 54) was 4 (7.4%) and the “TEAE Blood and lymphatic system disorders, n (%)” value ([3]; CTCAE (V5) Grade 1–2, N = 54) was 9 (16.7%). The “TEAE Blood creatinine increased, n (%)” value ([3]; CTCAE (V5) Grade 1–2, N = 54) was 7 (13.0%), the “TEAE Constipation, n (%)” value ([3]; CTCAE (V5) Grade 1–2, N = 54) was 12 (22.2%) and the “TEAE Decreased appetite, n (%)” value ([3]; CTCAE (V5) Grade 1–2, N = 54) was 6 (11.1%). The “TEAE Diarrhea, n (%)” value ([3]; CTCAE (V5) Grade 1–2, N = 54) was 17 (31.5%), the “TEAE Dry mouth, n (%)” value ([3]; CTCAE (V5) Grade 1–2, N = 54) was 8 (14.8%) and the “TEAE Eye disorders, n (%)” value ([3]; CTCAE (V5) Grade 1–2, N = 54) was 12 (22.2%). The “TEAE Fatigue, n (%)” value ([3]; CTCAE (V5) Grade 1–2, N = 54) was 11 (20.4%), the “TEAE Gastrointestinal disorders, n (%)” value ([3]; CTCAE (V5) Grade 1–2, N = 54) was 35 (64.8%) and the “TEAE General disorders and administration site conditions, n (%)” value ([3]; CTCAE (V5) Grade 1–2, N = 54) was 18 (33.3%). For the same compound, the “TEAE Hypercalcemia, n (%)” value ([3]; CTCAE (V5) Grade 1–2, N = 54) was 5 (9.3%), the “TEAE Hyperphosphatemia, n (%)” value ([3]; CTCAE (V5) Grade 1–2, N = 54) was 29 (53.7%) and the “TEAE Infections and infestations, n (%)” value ([3]; CTCAE (V5) Grade 1–2, N = 54) was 4 (7.4%). The “TEAE Investigations, n (%)” value ([3]; CTCAE (V5) Grade 1–2, N = 54) was 19 (35.2%), the “TEAE Metabolism and nutrition disorders, n (%)” value ([3]; CTCAE (V5) Grade 1–2, N = 54) was 30 (55.6%) and the “TEAE Musculoskeletal and connective tissue disorders, n (%)” value ([3]; CTCAE (V5) Grade 1–2, N = 54) was 14 (25.9%). For the same compound, the “TEAE Nausea, n (%)” value ([3]; CTCAE (V5) Grade 1–2, N = 54) was 6 (11.1%), the “TEAE Nervous system disorders, n (%)” value ([3]; CTCAE (V5) Grade 1–2, N = 54) was 7 (13.0%) and the “TEAE Psychiatric disorders, n (%)” value ([3]; CTCAE (V5) Grade 1–2, N = 54) was 7 (13.0%). The “TEAE Respiratory, thoracic, and mediastinal disorders, n (%)” value ([3]; CTCAE (V5) Grade 1–2, N = 54) was 7 (13.0%), the “TEAE Skin and subcutaneous tissue disorders, n (%)” value ([3]; CTCAE (V5) Grade 1–2, N = 54) was 14 (25.9%) and the “TEAE Stomatitis, n (%)” value ([3]; CTCAE (V5) Grade 1–2, N = 54) was 11 (20.4%). The “TEAE Vascular disorders, n (%)” value ([3]; CTCAE (V5) Grade 1–2, N = 54) was 5 (9.3%), the “Patient with any TEAE, n (%)” value ([3]; CTCAE (V5) Grade 3, N = 54) was 18 (33.3%) and the “TEAE Alanine aminotransferase increased, n (%)” value ([3]; CTCAE (V5) Grade 3, N = 54) was 1 (1.9%).
